# Reference: ChEMBL document CHEMBL6127009, “Discovery of L15 as a novel Vif PROTAC degrader with antiviral activity against HIV-1” (Bioorg Med Chem Lett, 2024)
# The source made the active and inactive calls. No cut-off for these calls is given here.
# Key:
# [1] = tested on: Human immunodeficiency virus 1; test: Antiviral activity against HIV-1 G140S/Q148H infected in C8166 cells; type: functional, organism-based; settings: Human immunodeficiency virus 1, G140S/Q148H
# [2] = tested on: Human immunodeficiency virus 1; test: Antiviral activity against HIV-1 IIIB infected in TZM-bl cells; type: functional, organism-based; settings: Human immunodeficiency virus 1, IIIB
# [3] = tested on: Human immunodeficiency virus 1; test: Antiviral activity against HIV-1 4755-5 infected in C8166 cells; type: functional, organism-based; settings: Human immunodeficiency virus 1, 4755-5, C8166
# [4] = Therapeutic index, ratio of CC50 for human TZM-bl cells to EC50 for HIV IIIB infected in TZM-bl cells; type: toxicity, cell-based; settings: read-out: Ratio CC50/EC50
# [5] = tested on: Human immunodeficiency virus 1; test: Antiviral activity against HIV-1 IIIB infected in C8166 cells; type: functional, organism-based; settings: Human immunodeficiency virus 1, IIIB
# [6] = biological target: T1, Protein cereblon/Virion infectivity factor (Human immunodeficiency virus type 1 group M subtype B (isolate NY5)(HIV-1)) (UniProt Q96SW2+P12504); test: PROTAC activity at CRBN (unknown origin)/Vif in HIV-1 TREX-hvif-15 cells assessed as reduction in Vif protein level incubated for 24 hrs by Western blotting analysis; type: cell-based; settings: TREX-hvif-15 cell, dose 3.125-50 µM
# T1 sequence (P12504 whole entry, looked up): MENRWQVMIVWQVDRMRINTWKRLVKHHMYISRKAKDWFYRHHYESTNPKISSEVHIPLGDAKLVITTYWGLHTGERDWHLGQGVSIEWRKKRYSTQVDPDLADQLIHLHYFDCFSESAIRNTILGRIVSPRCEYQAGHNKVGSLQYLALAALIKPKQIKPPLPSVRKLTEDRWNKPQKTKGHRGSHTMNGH
# T1 sequence (Q96SW2 whole entry, looked up): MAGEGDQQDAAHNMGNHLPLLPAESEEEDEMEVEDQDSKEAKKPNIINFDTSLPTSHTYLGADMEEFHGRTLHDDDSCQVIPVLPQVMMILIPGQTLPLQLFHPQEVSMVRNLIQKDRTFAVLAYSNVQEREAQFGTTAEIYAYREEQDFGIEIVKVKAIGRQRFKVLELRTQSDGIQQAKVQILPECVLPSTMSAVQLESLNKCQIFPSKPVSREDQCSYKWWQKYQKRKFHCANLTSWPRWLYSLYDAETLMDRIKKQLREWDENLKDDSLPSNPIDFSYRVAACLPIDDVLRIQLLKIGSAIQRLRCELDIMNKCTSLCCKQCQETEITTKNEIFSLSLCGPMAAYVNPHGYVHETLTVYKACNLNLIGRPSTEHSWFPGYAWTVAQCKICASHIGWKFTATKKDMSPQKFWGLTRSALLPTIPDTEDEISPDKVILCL
# [7] = tested on: Human immunodeficiency virus 1; test: Antiviral activity against HIV-1 KIZ002 infected in PHA-P stimulated PBMCs; type: functional, organism-based; settings: Human immunodeficiency virus 1, KIZ002, PBMC
# [8] = biological target: T1, Protein cereblon/Virion infectivity factor (Human immunodeficiency virus type 1 group M subtype B (isolate NY5)(HIV-1)); test: PROTAC activity at CRBN (unknown origin)/Vif in HIV-1 TREX-hvif-15 cells assessed as reduction in Vif protein level at 100 uM incubated for 24 hrs by Western blotting analysis; type: cell-based; set-up: scale not given: the % may be the effect or the level left; settings: TREX-hvif-15 cell
# [9] = tested on: Human immunodeficiency virus 1; test: Antiviral activity against HIV-1 2802 infected in C8166 cells; type: functional, organism-based; settings: Human immunodeficiency virus 1, 2802, C8166
# [10] = tested on: Human immunodeficiency virus 1; test: Antiviral activity against HIV1 at 50 uM measured after 8 hrs; type: functional, organism-based
# [11] = Cytotoxicity against human TZM-bl cells; type: toxicity, cell-based
# [12] = Cytotoxicity against human PBMCs; type: toxicity, cell-based, PBMC
# [13] = biological target: T1, Protein cereblon/Virion infectivity factor (Human immunodeficiency virus type 1 group M subtype B (isolate NY5)(HIV-1)); test: PROTAC activity at CRBN (unknown origin)/Vif in HIV-1 TREX-hvif-15 cells assessed as reduction in Vif protein level at 50 uM pretreated with MG132 followed by compound addition and measured after 24 hrs by Western blotting analysis; type: cell-based; settings: TREX-hvif-15 cell
# [14] = tested on: Human immunodeficiency virus 1; test: Antiviral activity against HIV-1 9498 infected in C8166 cells; type: functional, organism-based; settings: Human immunodeficiency virus 1, 9498, C8166
# [15] = tested on: Human immunodeficiency virus 1; test: Antiviral activity against HIV-1 WAN infected in PHA-P stimulated PBMCs; type: functional, organism-based; settings: Human immunodeficiency virus 1, WAN, PBMC
# [16] = biological target: T1, Protein cereblon/Virion infectivity factor (Human immunodeficiency virus type 1 group M subtype B (isolate NY5)(HIV-1)); test: PROTAC activity at CRBN (unknown origin)/Vif in HIV-1 TREX-hvif-15 cells assessed as reduction in Vif protein level at 50 uM by Western blotting analysis; type: cell-based; settings: TREX-hvif-15 cell
# [17] = tested on: Human immunodeficiency virus 1; test: Antiviral activity against HIV-1 A17 infected in C8166 cells; type: functional, organism-based; settings: Human immunodeficiency virus 1, A17, C8166
smiles,measurement,setting,value
COc1ccc(OCC(=O)NCCOCCOCCNc2cccc3c2C(=O)N(C2CCC(=O)NC2=O)C3=O)cc1NC(=O)c1c(N)cccc1Sc1ccc([N+](=O)[O-])cc1 (configuration not stated),EC50,[1],8.43 µM
same,EC50,[2],33.4 µM
same,EC50,[3],13.6 µM
same,selectivity ratio,[4],> 6
same,EC50,[5],10.5 µM
same,Activity,[6],Dose-Dependent Effect
same,EC50,[7],10.5 µM
same,Activity,[8],100%
same,EC50,[9],7.3 µM
same,Activity,[10],Active
same,CC50,[11],> 200 µM
same,CC50,[12],> 200 µM
same,Activity,[13],inactive
same,EC50,[14],9.65 µM
same,EC50,[15],8.76 µM
same,Activity,[16],Active
same,EC50,[17],> 100 µM
